According to US20230085307A1, “PYRIDAZINONE COMPOUND AND HERBICIDE” (NISSAN CHEMICAL CORPORATION, priority 2019, published 2023):

Key:
[1] = tested on: barnyard grass; assay: Test Example 5: herbicidal effect by foliage application, plastic box (Table 20, symbol H); type: in vivo, barnyard grass (Echinochloa crus-galli)
Method in brief: (§1)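 Foliar spray test: emulsion formulation diluted in water to a set application rate, sprayed onto 14-day-old plants raised in diluvial soil at 25° C to 30° C under glass. Both herbicidal effect and crop effect rated visually three weeks later.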

[2] = tested on: Italian ryegrass; assay: Test Example 4: herbicidal effect by soil treatment (Table 19, symbol K); type: in vivo, Italian ryegrass (Lolium multiflorum); settings: amount of applied herbicide 320 g/ha
Method in brief: (§2)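 Step 1: sow seeds in sterilized diluvial soil, cover ~1.5 cm. Step 2: spray diluted emulsion onto soil surface at predetermined rate. Step 3: greenhouse, 25–30° C, three weeks. Step 4: grade effect on each plant by earlier criteria.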

[3] = tested on: barnyard grass; assay: Test Example 4: herbicidal effect by soil treatment (Table 19, symbol H); type: in vivo, barnyard grass (Echinochloa crus-galli); settings: amount of applied herbicide 320 g/ha
Method in brief: as §2

[4] = tested on: wild oat; assay: Test Example 5: herbicidal effect by foliage application, plastic box (Table 20, symbol I); type: in vivo, wild oat (Avena fatua)
Method in brief: as §1

[5] = tested on: Italian ryegrass; assay: Test Example 5: herbicidal effect by foliage application, plastic box (Table 20, symbol K); type: in vivo, Italian ryegrass (Lolium multiflorum)
Method in brief: as §1

[6] = tested on: Japanese bulrush; assay: Test Example 1: herbicidal activity, application before weed generation under submerged conditions (Table 16, symbol B); type: in vivo, Japanese bulrush (Schoenoplectus juncoides); settings: amount of applied herbicide 320 g/ha
Method in brief: (§3)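 Emulsion formulation, water-diluted to set dose, was put onto the flooded surface (4 cm depth, alluvial soil) the same day weeds were sown and 2.5-leaf rice transplanted. After 3 weeks at 25-30 °C under glass, each species was rated 0 (≤5% kill) to 5 (≥90% kill).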

[7] = tested on: oval-leafed pondweed; assay: Test Example 1: herbicidal activity, application before weed generation under submerged conditions (Table 16, symbol C); type: in vivo, oval-leafed pondweed (Monochoria vaginalis); settings: amount of applied herbicide 320 g/ha
Method in brief: as §3

[8] = tested on: southern crabgrass; assay: Test Example 4: herbicidal effect by soil treatment (Table 19, symbol F); type: in vivo, southern crabgrass (Digitaria ciliaris); settings: amount of applied herbicide 320 g/ha
Method in brief: as §2

[9] = tested on: green foxtail; assay: Test Example 5: herbicidal effect by foliage application, plastic box (Table 20, symbol G); type: in vivo, green foxtail (Setaria viridis)
Method in brief: as §1

[10] = tested on: windgrass; assay: Test Example 4: herbicidal effect by soil treatment (Table 19, symbol L); type: in vivo, windgrass (Apera spica-venti); settings: amount of applied herbicide 320 g/ha
Method in brief: as §2

[11] = tested on: barnyard grass; assay: Test Example 3: herbicidal effect by foliage application, Wagner pot (Table 18, symbol H); type: in vivo, barnyard grass (Echinochloa crus-galli); settings: 320 g/ha
Method in brief: (§4)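 Plants were sown in alluvial soil held under 0.1–0.5 cm standing water and grown 14 days in a greenhouse at 25–30 °C. An emulsifiable formulation, water-diluted to the set dose, was then sprayed onto the foliage, and effects were scored three weeks later using previously defined criteria.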

[12] = tested on: windgrass; assay: Test Example 5: herbicidal effect by foliage application, plastic box (Table 20, symbol L); type: in vivo, windgrass (Apera spica-venti)
Method in brief: as §1

[13] = tested on: wild oat; assay: Test Example 4: herbicidal effect by soil treatment (Table 19, symbol I); type: in vivo, wild oat (Avena fatua); settings: amount of applied herbicide 320 g/ha
Method in brief: as §2

[14] = tested on: blackgrass; assay: Test Example 5: herbicidal effect by foliage application, plastic box (Table 20, symbol J); type: in vivo, blackgrass (Alopecurus myosuroides)
Method in brief: as §1

[15] = tested on: chickweed; assay: Test Example 4: herbicidal effect by soil treatment (Table 19, symbol P); type: in vivo, common chickweed (Stellaria media); settings: amount of applied herbicide 320 g/ha
Method in brief: as §2

[16] = tested on: green foxtail; assay: Test Example 4: herbicidal effect by soil treatment (Table 19, symbol G); type: in vivo, green foxtail (Setaria viridis); settings: amount of applied herbicide 320 g/ha
Method in brief: as §2

[17] = tested on: lambsquarters; assay: Test Example 4: herbicidal effect by soil treatment (Table 19, symbol O); type: in vivo, lambsquarters (Chenopodium album); settings: amount of applied herbicide 320 g/ha
Method in brief: as §2

[18] = tested on: chickweed; assay: Test Example 5: herbicidal effect by foliage application, plastic box (Table 20, symbol P); type: in vivo, common chickweed (Stellaria media); settings: amount of applied herbicide 320 g/ha; foliage application after 14-day growth; evaluated three weeks after application
Method in brief: as §1

[19] = tested on: rice flat sedge; assay: Test Example 3: herbicidal effect by foliage application, Wagner pot (Table 18, symbol E); type: in vivo, rice flat sedge (Cyperus iria); settings: 320 g/ha
Method in brief: as §4

[20] = tested on: velvetleaf; assay: Test Example 5: herbicidal effect by foliage application, plastic box (Table 20, symbol M); type: in vivo, velvetleaf (Abutilon theophrasti)
Method in brief: as §1

[21] = tested on: redroot pigweed; assay: Test Example 5: herbicidal effect by foliage application, plastic box (Table 20, symbol N); type: in vivo, redroot pigweed (Amaranthus retroflexus); settings: amount of applied herbicide 320 g/ha; foliage application after 14-day growth; evaluated three weeks after application
Method in brief: as §1

[22] = tested on: southern crabgrass; assay: Test Example 5: herbicidal effect by foliage application, plastic box (Table 20, symbol F); type: in vivo, southern crabgrass (Digitaria ciliaris)
Method in brief: as §1

[23] = tested on: persian speedwell; assay: Test Example 5: herbicidal effect by foliage application, plastic box (Table 20, symbol R); type: in vivo, Persian speedwell (Veronica persica)
Method in brief: as §1

[24] = tested on: velvetleaf; assay: Test Example 4: herbicidal effect by soil treatment (Table 19, symbol M); type: in vivo, velvetleaf (Abutilon theophrasti); settings: amount of applied herbicide 320 g/ha
Method in brief: as §2

[25] = tested on: lambsquarters; assay: Test Example 5: herbicidal effect by foliage application, plastic box (Table 20, symbol O); type: in vivo, lambsquarters (Chenopodium album)
Method in brief: as §1

[26] = tested on: redroot pigweed; assay: Test Example 4: herbicidal effect by soil treatment (Table 19, symbol N); type: in vivo, redroot pigweed (Amaranthus retroflexus); settings: amount of applied herbicide 320 g/ha
Method in brief: as §2

[27] = tested on: blackgrass; assay: Test Example 4: herbicidal effect by soil treatment (Table 19, symbol J); type: in vivo, blackgrass (Alopecurus myosuroides); settings: amount of applied herbicide 320 g/ha
Method in brief: as §2

[28] = tested on: Chinese sprangletop; assay: Test Example 3: herbicidal effect by foliage application, Wagner pot (Table 18, symbol D); type: in vivo, chinese sprangletop (Leptochloa chinensis); settings: 320 g/ha
Method in brief: as §4

[29] = tested on: late watergrass; assay: Test Example 1: herbicidal activity, application before weed generation under submerged conditions (Table 16, symbol A); type: in vivo, late watergrass (Echinochloa oryzicola); settings: amount of applied herbicide 320 g/ha
Method in brief: as §3

[30] = tested on: persian speedwell; assay: Test Example 4: herbicidal effect by soil treatment (Table 19, symbol R); type: in vivo, Persian speedwell (Veronica persica); settings: amount of applied herbicide 320 g/ha
Method in brief: as §2

[31] = amount of applied herbicide 320 g/ha, foliage application after 14-day growth, evaluated three weeks after application
[32] = foliage application, 320 g/ha, three weeks after application

Compound | K: Italian ryegrass, herbicidal effect grade [2] | H: barnyard grass, herbicidal effect grade [3] | Herbicidal effect, B: Japanese bulrush [6] | Herbicidal effect, C: oval-leafed pondweed [7] | F: southern crabgrass, herbicidal effect grade [8] | herbicidal effect on barnyard grass (H) [11] | I: wild oat, herbicidal effect grade [13] | P: chickweed, herbicidal effect grade [15] | G: green foxtail, herbicidal effect grade [16] | O: lambsquarters, herbicidal effect grade [17] | herbicidal effect on rice flat sedge (E) [19] | M: velvetleaf, herbicidal effect grade [24] | N: redroot pigweed, herbicidal effect grade [26] | J: blackgrass, herbicidal effect grade [27] | herbicidal effect on Chinese sprangletop (D) [28] | Herbicidal effect, A: late watergrass [29] | further results
CCCC(=O)Oc1c(C)nn(C)c(=O)c1-c1c(-c2ccc3c(c2)OCCO3)sc2cc(F)c(F)cc12 [5-038] | 0 (Herbicidal rate of 5% or less (almost no effect)) | 0 (Herbicidal rate of 5% or less (almost no effect)) | 3 (Herbicidal rate of 40% or more and less than 70%) | 4 (Herbicidal rate of 70% or more and less than 90%) | 0 (Herbicidal rate of 5% or less (almost no effect)) | 2 (Herbicidal rate of 20% or more and less than 40%) | 0 (Herbicidal rate of 5% or less (almost no effect)) | 0 (Herbicidal rate of 5% or less (almost no effect)) | 0 (Herbicidal rate of 5% or less (almost no effect)) | 4 (Herbicidal rate of 70% or more and less than 90%) | 4 (Herbicidal rate of 70% or more and less than 90%) | 0 (Herbicidal rate of 5% or less (almost no effect)) | 2 (Herbicidal rate of 20% or more and less than 40%) | 0 (Herbicidal rate of 5% or less (almost no effect)) | 2 (Herbicidal rate of 20% or more and less than 40%) | 4 (Herbicidal rate of 70% or more and less than 90%) | Herbicidal effect by foliage application, H: barnyard grass [1, 31]: 0 (Herbicidal rate of 5% or less (almost no effect)); Herbicidal effect by foliage application, I: wild oat [4, 31]: 0 (Herbicidal rate of 5% or less (almost no effect)); Herbicidal effect by foliage application, K: Italian ryegrass [5, 31]: 0 (Herbicidal rate of 5% or less (almost no effect)); Herbicidal effect by foliage application, G: green foxtail [9, 31]: 0 (Herbicidal rate of 5% or less (almost no effect)); L: windgrass, herbicidal effect grade [10]: 0 (Herbicidal rate of 5% or less (almost no effect)); Herbicidal effect by foliage application, L: windgrass [12, 31]: 0 (Herbicidal rate of 5% or less (almost no effect)); Herbicidal effect by foliage application, J: blackgrass [14, 31]: 0 (Herbicidal rate of 5% or less (almost no effect)); Herbicidal effect by foliage application, P: chickweed [18]: 5 (Herbicidal rate of 90% or more (almost completely withered)); Herbicidal effect by foliage application, M: velvetleaf [20, 31]: 3 (Herbicidal rate of 40% or more and less than 70%); Herbicidal effect by foliage application, N: redroot pigweed [21]: 2 (Herbicidal rate of 20% or more and less than 40%); Herbicidal effect by foliage application, F: southern crabgrass [22, 31]: 0 (Herbicidal rate of 5% or less (almost no effect)); Herbicidal effect by foliage application, R: persian speedwell [23, 31]: 5 (Herbicidal rate of 90% or more (almost completely withered)); Herbicidal effect by foliage application, O: lambsquarters [25, 31]: 1 (Herbicidal rate of 5% or more and less than 20%)
COc1cc2sc(-c3ccccc3OC)c(-c3c(O)c(C)nn(C)c3=O)c2cc1F [5-064] | 0 (Herbicidal rate of 5% or less (almost no effect)) | 4 (Herbicidal rate of 70% or more and less than 90%) | 0 (Herbicidal rate of 5% or less (almost no effect)) | 0 (Herbicidal rate of 5% or less (almost no effect)) | 3 (Herbicidal rate of 40% or more and less than 70%) | 5 (Herbicidal rate of 90% or more (almost completely withered)) | 0 (Herbicidal rate of 5% or less (almost no effect)) | 4 (Herbicidal rate of 70% or more and less than 90%) | 4 (Herbicidal rate of 70% or more and less than 90%) | 3 (Herbicidal rate of 40% or more and less than 70%) | 5 (Herbicidal rate of 90% or more (almost completely withered)) | 2 (Herbicidal rate of 20% or more and less than 40%) | 4 (Herbicidal rate of 70% or more and less than 90%) | 1 (Herbicidal rate of 5% or more and less than 20%) | 2 (Herbicidal rate of 20% or more and less than 40%) | 2 (Herbicidal rate of 20% or more and less than 40%) | herbicidal effect on barnyard grass (H) [1, 32]: 4 (Herbicidal rate of 70% or more and less than 90%); R: persian speedwell, herbicidal effect grade [30]: 5 (Herbicidal rate of 90% or more (almost completely withered)); herbicidal effect on wild oat (I) [4, 32]: 4 (Herbicidal rate of 70% or more and less than 90%); herbicidal effect on Italian ryegrass (K) [5, 32]: 3 (Herbicidal rate of 40% or more and less than 70%); herbicidal effect on green foxtail (G) [9, 32]: 5 (Herbicidal rate of 90% or more (almost completely withered)); herbicidal effect on windgrass (L) [12, 32]: 5 (Herbicidal rate of 90% or more (almost completely withered)); herbicidal effect on blackgrass (J) [14, 32]: 4 (Herbicidal rate of 70% or more and less than 90%); herbicidal effect on velvetleaf (M) [20, 32]: 4 (Herbicidal rate of 70% or more and less than 90%); herbicidal effect on southern crabgrass (F) [22, 32]: 4 (Herbicidal rate of 70% or more and less than 90%); herbicidal effect on persian speedwell (R) [23, 32]: 5 (Herbicidal rate of 90% or more (almost completely withered)); herbicidal effect on lambsquarters (O) [25, 32]: 3 (Herbicidal rate of 40% or more and less than 70%)
